Like-named read-outs stand apart in the source and are kept apart here.

A short description of series [1]: Plasma and tissue exposure in PK/PD model. The format is in vivo, mouse male (C57BL/6J). The following applies: male, C57BL/6J, mouse, 300 mg/kg, 1 h, 6.5 h and 24.5 h. On the procedure:
(§1) Animals were fasted overnight before treatment. Following 0.5 h from administration of either Compound 19 at dose of 300 mg/kg or vehicle (0.5% Tween 80, 0.5% Methylcellulose in H2O), ^13C6-glucose was administered by oral gavage (2 g/kg, Merck Life Science Srl). Blood, lung, and brain samples were collected at 1 h, 6.5 h and 24.5 h after treatment with Compound 19 or vehicle.
The tissue concentration of ^13C3-serine was determined by a liquid chromatography-tandem mass spectrometry (LC/MS/MS) assay. GraphPad Prism (version 8.1.2) was used for drawing graphs and for statistical analysis. Plasma or tissue homogenate samples (tissues were homogenized with a water/acetonitrile 50/50 mixture) were extracted with 3 volumes of acetonitrile. Supernanatant was injected into HPLC system (Agilent 1260 Quaternary Pump equipped with an Agilent 1200 High Performance Autosampler SL; Agilent), using a Kinetex EVO C18 analytical column (100 A, 50×2.1 mm, 2.6 μm; Phenomenex) for the analysis of Compound 19 or an InfinityLab Poroshell 120 Hilic-Z (50×2.1 mm 2.7 μm; Agilent) for the analysis of ^13C3-serine. […]
Mass spectrometric analysis was performed on a linear ion trap triple quadrupole mass spectrometer (4000 Q TRAP; AB SCIEX) equipped with a turbo spray ion source; mass spectrometer was operated in positive ion mode and quantification was achieved by multiple reaction monitoring (MRM) mode. […]

Series [2] relates to synthesis of 13C3-serine. Briefly: PK/PD model: in vivo [13C6] glucose tracing, inhibition of 13C3-serine synthesis. More on the design: species or system mouse male (C57BL/6J). As to conditions: for inhibition at 300 mg/kg: Mus musculus. On the procedure:
As PHGDH catalyzes the rate-limiting step of glucose-derived serine synthesis, a pharmacokinetic/pharmacodynamic (PK/PD) experiment aimed to assess the inhibition of the synthesis of ^13C3-serine after oral administration of ^13C6-glucose was performed in mouse male (C57BL/6J).
as §1
The tissue concentration of ^13C3-serine was determined by a liquid chromatography-tandem mass spectrometry (LC/MS/MS) assay. GraphPad Prism (version 8.1.2) was used for drawing graphs and for statistical analysis. Plasma or tissue homogenate samples (tissues were homogenized with a water/acetonitrile 50/50 mixture) were extracted with 3 volumes of acetonitrile. Supernanatant was injected into HPLC system (Agilent 1260 Quaternary Pump equipped with an Agilent 1200 High Performance Autosampler SL; Agilent), using a Kinetex EVO C18 analytical column (100 A, 50×2.1 mm, 2.6 μm; Phenomenex) for the analysis of Compound 19 or an InfinityLab Poroshell 120 Hilic-Z (50×2.1 mm 2.7 μm; Agilent) for the analysis of ^13C3-serine. The mobile phases consisted of 0.1% formic acid in water (solvent A) and 0.1% formic acid in acetonitrile (solvent B); chromatographic separation was performed with gradient elution method (see conditions below): • Compound 19 (0.0-0.5 min, 10% B; 0.5-3.0 min, gradient to 90% B; 3.0-5.0 min. 90% B; 5.0-6.0 min, gradient to 10% B; 6.0-10.0 min, 10% B—flow rate: 0.4 mL/min). • S^13C3-serine (0.0-0.5 min, 95% B; 0.5-4.0 min, gradient to 60% B; 4.0-5.0 min, 60% B; 5.0-6.0 min, gradient to 95% B; 6.0-10.0 min, 95% B—flow rate: 0.4 mL/min).
Mass spectrometric analysis was performed on a linear ion trap triple quadrupole mass spectrometer (4000 Q TRAP; AB SCIEX) equipped with a turbo spray ion source; mass spectrometer was operated in positive ion mode and quantification was achieved by multiple reaction monitoring (MRM) mode. Peak integration was performed using Analyst (version 1.6.2.). GraphPad Prism (version 8.1.2) was used for drawing graphs and for statistical analysis.
After 0.5 h from administration of Compound 19a at dose of 3, 10, 30, 100 and 300 mg/kg po, Compound 19 at dose of 300 mg/kg po or vehicle po (0.5% Tween 80, 0.5% Methylcellulose in H2O), mice received ^13C6-glucose by oral gavage (2 g/kg, Merck Life Science Srl). […] Blood was withdrawn by cardiac puncture and collected in heparin tubes.

Series [3] in a line: Plasma exposure after the last dose in bleomycin model (Example 5). The format is in vivo, Male C57BL6/J mice. The following applies: 0.5 h, 2 h and 7 h. The procedure:
The Bioanalysis of Compound 19 in plasma was carried out under the same experimental conditions as reported in Example 3.
Plasma exposure of Compound 19 was determined following the last oral dose at three timepoints (0.5 h, 2 h and 7 h).

With `CC(C)C(C(=O)O)c1ccc(C2(NC(=O)c3cc4c(Cl)c(Cl)ccc4n3C)CCOC2)cc1` (racemic) [Compound 19, (±)-2-(4-(3-(4,5-Dichloro-1-methyl-1H-indole-2-carboxamido)tetrahydro-furan-3-yl)phenyl)-3-methylbutanoic acid], the Kp stood at 0.01 in series [1] (brain / plasma, read-out: mean brain/plasma ratio) and 0.4 in series [1] (lung / plasma, read-out: mean lung/plasma ratio). Moreover, in series [2] (300 mg/kg po, 1 h), the “brain serine concentration (in words)” value is “without reaching the statistical significance”. Besides, the “inhibition of labelled serine in brain” value in series [2] (300 mg/kg, any timepoint (1, 6.5, 24.5 h)) is “no significant inhibition”. The inhibition at 300 mg/kg in series [2] (300 mg/kg po, 1 h, read-out: inhibition of labelled serine in lung) is 85%; in series [2] (300 mg/kg po, 1 h, read-out: inhibition of labelled serine in plasma), 87%; in series [2] (300 mg/kg, at 1 and 6.5 h, read-out: inhibition of labelled serine in plasma and lung) it was 70 to 85%. In addition, the “plasma exposure following the last oral dose” value in series [3] is reported as “good oral exposure”.

These data come from patent publication US20260207551A1, “PHOSPHOGLICERATE DEHYDROGENASE INHIBITORS FOR THE TREATMENT OF FIBROSIS” (CHIESI FARMACEUTICI S.P.A., priority 2022, published 2026).
